Laboratory results from article PMC11473416, “Coumarin-chalcone derivatives as dual NLRP1 and NLRP3 inflammasome inhibitors targeting oxidative stress and inflammation in neurotoxin-induced HMC3 and BE(2)-M17 cell models of Parkinson's disease” (Frontiers in Aging Neuroscience, 2024).

Tests used:
[1] = cytotoxicity MTT assay in HMC3 cells; assay type: cell-based, human; details: human, HMC3 microglial cells, MTT, 1–100 μM, 24 h
Experimental: (§1) Human HMC3 microglial (CRL-3304) and neuroblastoma BE(2)-M17 (CRL-2267) cells were obtained from American Type Culture Collection. BE(2)-M17 develops a better dopaminergic phenotype than SH-SY5Y when treated with retinoic acid to direct neuronal differentiation (Carvajal-Oliveros et al., [2022]). Cells were routinely maintained in Dulbecco's Modified Eagle Medium-Nutrient Mixture F12 (DMEM-F12) supplemented with 10% fetal bovine serum (FBS; Thermo Fisher Scientific, Waltham, MA, USA) in a 37°C incubator, with 95% relative humidity and 5% CO2 (NuAire, Plymouth, MN, USA).
(§2) To evaluate cytotoxicity of LM compounds and MPP^+, HMC3 (1 × 10^4) or BE(2)-M17 (2 × 10^4) cells were plated on 96-well dishes, grown for 20 h, and treated with LM compounds (1–100 μM) or MPP^+ [HMC3: 0–8 mM; BE(2)-M17: 0–5 mM]. Next day, 20 μl of tetrazolium dye 3-(4,5-dimethylthiazol-2-yl)-2,5-diphenyltetrazolium bromide (MTT, 5 mg/ml; Sigma-Aldrich) was added to the cells at 37°C for 3 h. The resulted insoluble purple formazan products were dissolved by lysis buffer (composition: 10% Triton X-100, 0.1 N HCl, 18% isopropanol). The absorbance of the dissolved product at optical density (OD) 570 nm was read by using a FLx800 fluorescence microplate spectrophotometer (Bio-Tek, Winooski, VT, USA). The half maximal inhibitory concentration (IC50) of LM compounds was determined through the construction of a dose-response curve. MPP^+ at 4 mM (HMC3 cell viability: 65%−69%) or 0.62 mM [BE(2)-M17 cell viability: 79%−84%] was selected to induce inflammation for further experiments.

[2] = cytotoxicity MTT assay in BE(2)-M17 cells; assay type: cell-based, human; details: human, BE(2)-M17 neuroblastoma cells, MTT, 1–100 μM, 24 h
Experimental: as §1, §2

[3] = DPPH free radical scavenging activity; details: 10–160 μM, 30 min, room temperature
Experimental: Stable 1,1-diphenyl-2-picrylhydrazyl (DPPH) radical in ethanol (100 μM; Sigma-Aldrich) was used to measure the antioxidant activity of these LM compounds. After addition of quercetin (positive control) or LM compound (10–160 μM), the mixture was vortexed for 15 s and incubated at room temperature for 30 min. Subsequently, the mixture was measured spectrophotometrically at 517 nm (Multiskan GO microplate spectrophotometer; Thermo Fisher Scientific). The free radical scavenging activity was calculated as the percentage of DPPH discoloration using the formula 1 – (absorbance of sample/absorbance of control) × 100%, with half maximal effective concentration (EC50) calculated using the interpolation method.

[4] = oxygen radical antioxidant capacity (OxiSelect kit); details: at 4–100 μM concentration
Experimental: The test of oxygen radical antioxidant capacity (Ou et al., [2001]) was performed using OxiSelect™ kit (Cell Biolabs, San Diego, CA, USA). Briefly, trolox standards (2.5–50 μM) and LM compounds (4–100 μM) were prepared using a serial dilution in a mixture containing 50% acetone and 50% water. After adding fluorescein to blank (50% acetone/50% water), standards, or samples, the mixture was mixed and incubated at 37°C for 30 min. Subsequently, free radical initiator 2,2′-azobis(2-methylpropionamidine) dihydrochloride (AAPH) was added to generate peroxyl radicals (ROO•). The quenching of fluorescent probe over time was recorded at 480 nm excitation and 520 nm emission for 60 min (Bio-Tek FLx800). To quantify the oxygen radical absorbance capacity, the area under the curve (AUC) for blank, standard and samples were calculated. After subtraction of the blank, trolox equivalent (μM) of samples were determined using a calibration curve with trolox standards.

| SMILES | IC50 at 24 h [1] [µM] | IC50 at 24 h [2] [µM] | EC50 [3] [µM] | oxygen radical antioxidant capacity, trolox equivalent [4] [µM] |
| --- | --- | --- | --- | --- |
| COc1ccccc1/C=C/C(=O)c1c(O)c2ccccc2oc1=O [LM-009] | > 100 | > 100 |  |  |
| O=c1c(O)c(-c2ccc(O)c(O)c2)oc2cc(O)cc(O)c12 [Quercetin, reference compound] |  |  | 21 | 14 to 39 |
